Measurements as given in patent publication US20220315571A1 (Cytokinetics, Inc., priority 2019, published 2022).
Read-outs that look alike come from different tables or passages of the source. Each block holds one molecule with its values, some of them ahead of it.

Columns and labels:
myocytes = experiment: Myocyte contractility assay (fractional shortening, edge detection); format: cell-based, Sprague-Dawley rats; settings: 5 μM, adult rat myocytes, 5 min perfusion, 5 cells tested
Experimental: Adult male Sprague-Dawley rats were anesthetized and the hearts were quickly excised, rinsed and the ascending aorta was cannulated. Continuous retrograde perfusion was initiated on the hearts at a perfusion pressure of 60 cm H2O. Hearts were first perfused with a nominally Ca^2+-free modified Krebs solution of the following composition: 113 mM NaCl, 4.7 mM KCl, 0.6 mM KH2PO4, 0.6 mM Na2HPO4, 1.2 mM MgSO4, 12 mM NaHCO3, 10 mM KHCO3, 30 mM taurine, 5.5 mM glucose and 10 mM Hepes (all Sigma). This medium is not recirculated and is continually aerated with a 95% O2/5% CO2 mixture. […]
Aliquots of myocytes in Tyrode's buffer were placed in perfusion chambers (series 20 RC-27NE; Warner Instruments) complete with heating platforms. […] Contractility of the myocytes and contraction and relaxation velocities were then recorded using edge detection.
Five or more individual myocytes were tested per compound from two or more different myocyte preparations. […] These average transients were analyzed using the IonWizard software (IonOptix) to determine changes in diastolic length and fractional shortening. Fractional shortening was calculated as: ((resting length−length at peak contraction) divided by the resting length). The percent change in fractional shortening from baseline was calculated as: ((post-dose fractional shortening/basal fractional shortening)*100). […]

[1] = system: Rat Cardiac Contractility; experiment: Echocardiography assessment of acute pharmacodynamic effect in rat cardiac contractility; format: in vivo, Sprague Dawley rats
Experimental: Assessment of in vivo cardiac function by echocardiography was performed in male Sprague Dawley rats under isoflurane (1-3%) anesthesia. 2-D M-mode images of the left ventricle were acquired in the parasternal long-axis view before, during, and after administration of compounds by continuous IV infusion or oral gavage. In vivo fractional shortening was determined by M-mode image analysis with the following calculation: ((End diastolic diameter—end systolic diameter)/end diastolic diameter×100). For continuous IV infusion experiments, three pre-dose baseline M-mode images were taken at 1 minute intervals prior to infusion of compound. Compounds were formulated in 50% Propylene Glycol (PG): 16% Captisol: 10% dimethylacetamide (DMA) and delivered via a jugular vein catheter at the rate of 1 mL/kg/h. During infusion, M-mode images were taken at 5 minute intervals. The infusion stopped when fractional shortening reached up to a 60% reduction from baseline. Blood samples were taken to determine the plasma concentration of the compounds. Data was reported as an estimated IC50 value, which is the concentration at which fractional shortening is 50% of the pre-dose baseline contractility.
For oral dosing studies, three pre-dose baseline M-Mode images were taken at 1 minute intervals prior to compound administration. […] Rats were lightly anesthetized for M-Mode echocardiography measurements at select time points over a 24 hour period. Different dose levels were evaluated. The compound effect on cardiac fractional shortening at the highest dose evaluated is presented below as a percent reduction of baseline fractional shortening (=100%).
Concurrent with echocardiography measurements, blood samples were taken to determine the corresponding compound plasma concentration.

[2] = Polymorph screening, heat/humidity exposure of Form I (XRPD); format: physicochemical
Experimental: Polymorphic Form I of (R)-N-(5-(5-ethyl-1,2,4-oxadiazol-3-yl)-2,3-dihydro-1H-inden-1-yl)-1-methyl-1H-pyrazole-4-carboxamide was mixed with various solvents under various conditions. Samples generated were analyzed by XRPD.

[3] = Dynamic Vapor Sorption (DVS); format: physicochemical; settings: 5-90% relative humidity (RH) range, 25° C.
Experimental: DVS analyses were carried out TA Instruments Q5000 Dynamic Vapor Sorption analyzer. The instrument was calibrated with standard weights and a sodium bromide standard for humidity. Samples were analyzed at 25° C. with a maximum equilibration time of 60 minutes in 10% relative humidity (RH) steps from 5 to 95% RH (adsorption cycle) and from 95 to 5% RH (desorption cycle).
Polymorphic Form I of (R)-N-(5-(5-ethyl-1,2,4-oxadiazol-3-yl)-2,3-dihydro-1H-inden-1-yl)-1-methyl-1H-pyrazole-4-carboxamide was analyzed by XRPD, DSC, TGA, and DVS. […] As shown in the TGA graph, a weight loss of 0.2% below 200° C., was observed.

[4] = Competitive slurry experiments between Form I and Form IV; format: physicochemical
Excerpt: The results of the competitive slurry experiments are provided below in Table 7.

- IC50 ([1]; continuous IV infusion, rats under isoflurane, read-out: estimated IC50 (plasma concentration at which fractional shortening is 50% of pre-dose baseline contractility), Mean±S.D.): 7.2 ± 0.2 µM
- IC50 ([1]; oral dosing studies, rat, read-out: estimated IC50 (plasma concentration, fractional shortening)): 7.9 µM
Compound: CCc1nc(-c2ccc3c(c2)CC[C@H]3NC(=O)c2cnn(C)c2)no1 [(R)-N-(5-(5-ethyl-1,2,4-oxadiazol-3-yl)-2,3-dihydro-1H-inden-1-yl)-1-methyl-1H-pyrazole-4-carboxamide]
- % FS (% reduction from baseline) ± SEM (myocytes): 67.4 ± −5.8%
- FS (% reduction from baseline) at 1-2 h post dose (Mean ± S.D.) ([1]; 2 mg/kg single dose by oral gavage, rat, 1-2 h post dose): 43 ± 9%
- FS (% reduction from baseline) at 4 h post dose (Mean ± S.D.) ([1]; 2 mg/kg single dose by oral gavage, rat, 4 h post dose): 31 ± 9%
- estimated IC10 (plasma concentration, fractional shortening) ([1]; oral dosing studies, rat): 0.8 µM

- XRPD form after heat/humidity exposure ([2]; none, RT, 0% RH): Form I
- XRPD form after heat/humidity exposure ([2]; water vapor, 40° C., 75% RH): Form I
- XRPD form after heat/humidity exposure ([2]; water vapor, RT, 59% RH): Form I
- XRPD form after heat/humidity exposure ([2]; water vapor, RT, 75% RH): Form I
- XRPD form after heat/humidity exposure ([2]; water vapor, RT, 97% RH): Form I
- moisture uptake as determined by DVS [3]: 0.60 % w/w
Compound: CCc1nc(-c2ccc3c(c2)CC[C@H]3NC(=O)c2cnn(C)c2)no1 [Form I, (R)-N-(5-(5-ethyl-1,2,4-oxadiazol-3-yl)-2,3-dihydro-1H-inden-1-yl)-1-methyl-1H-pyrazole-4-carboxamide]

- relative stability of forms in competitive slurry ([4]; temperature range 2-60° C.): more stable than Form I
Compound: CCc1nc(-c2ccc3c(c2)CC[C@H]3NC(=O)c2cnn(C)c2)no1 [Form IV, (R)-N-(5-(5-ethyl-1,2,4-oxadiazol-3-yl)-2,3-dihydro-1H-inden-1-yl)-1-methyl-1H-pyrazole-4-carboxamide]

- XRPD form after competitive slurry ([4]; ACN, 2 ° C.): Form IV
- XRPD form after competitive slurry ([4]; ACN, 25 ° C.): Form IV
- XRPD form after competitive slurry ([4]; ACN, 60 ° C.): Form IV
- XRPD form after competitive slurry ([4]; acetone, 2 ° C.): Form IV
- XRPD form after competitive slurry ([4]; acetone, 25 ° C.): Form IV
- XRPD form after competitive slurry ([4]; acetone, 60 ° C.): Form IV
Compound: CCc1nc(-c2ccc3c(c2)CC[C@H]3NC(=O)c2cnn(C)c2)no1 [Forms I and IV, (R)-N-(5-(5-ethyl-1,2,4-oxadiazol-3-yl)-2,3-dihydro-1H-inden-1-yl)-1-methyl-1H-pyrazole-4-carboxamide]
